Assays:
Format in all cases: cell-based
[1] = tested on: CCL17 expression in HaCaT cells; test: CCL17 gene expression (RT-PCR) in HaCaT cells induced by TNF-α and/or IFN-γ; details: HaCaT cells, 2.5, 5, 10 and 20 μg/mL for one hour, then TNF-α, IFN-γ, or both, 18 hours; RNA level, FIG. 2
Description: (§1) 1×10^6 HaCaT cells were moved into a 6-well microplate, cultured in DMEM containing 10% (v/v) FBS for 12 hours, washed with PBS, and then treated in 2 mL of serum free media with ergostenol at each concentration of 2.5, 5, 10 and 20 μg/mL for one hour. After that, the cells were treated with inflammation-inducing molecules, i.e., TNF-α, IFN-γ, or TNF-α and IFN-γ, and then cultured for 18 hours. To identify a change in CCL17 and CCL22 expressions at an RNA level, RNAs were isolated with Trizol reagent kit (Invitrogen, Gaithersburg, Md.) according to a manufacturer's manual. A reverse transcription was performed with the isolated RNAs as a template to obtain cDNAs. A reverse transcription buffer solution (5 mM MgCl2, 1 mM dNTP, 2.5 U/μL reverse transcriptase, and 2.5 μM oligo (dT) 15 as a primer (omniscript RTkit, Qiagen)), 0.5 U of RNase inhibiter, 2.5 μM of oligo (dT) and 2.5 U of reverse transcriptase were added into 2 μg of […], and subjected to reaction at 37° C., such that the cDNAs were obtained. To quantify the obtained cDNAs, PCR was performed with the primers of a following table 1, after which the amplified DNAs were identified with 1% agarose gel.

[2] = tested on: CCL22 expression in HaCaT cells; test: CCL22 protein in media (ELISA) of HaCaT cells induced by TNF-α and/or IFN-γ; details: HaCaT cells, 2.5, 5, 10 and 20 μg/mL for one hour, then TNF-α, IFN-γ, or both, 18 hours, FIG. 3
Description: (§2) Also, to figure out an effect of ergostenol at a protein level, HaCaT cells were treated with ergostenol at a concentration of 2.5, 5, 10 and 20 μg/mL for one hour, then treated with molecules related to inflammation induction, i.e., TNF-α, IFN-γ, or TNF-α and IFN-γ, and then cultured for 18 hours. With regard to CCL17 and CCL22, the amount of proteins present in media was identified with an ELISA kit (R&D Systems, Minneapolis, Minn., USA). Captured antibodies (anti-CCL17 antibody and anti-CCL22 antibody) at 2 μg/mL were inserted into a 96-well plate in an amount of 50 μL, respectively, subjected to coating for two hours, and then subjected to blocking with PBS containing 1% BSA for one hour. Then, a collected sample was inserted into each well in an amount of 100 μL, respectively, and subjected to reaction for two hours. The cells were washed three times with PBS-T, after which 50 μL of detector antibodies (anti-CCL17 antibody and anti-CCL22 antibody) were inserted into each well at 100 ng/well, and subjected to reaction for two hours. […] The cells were fully washed with PBS-T, after which a substrate solution (TMB) was added thereto, such that absorbance thereof was measured at 450 nm.

[3] = tested on: CCL22 expression in HaCaT cells; test: CCL22 gene expression (RT-PCR) in HaCaT cells induced by TNF-α and/or IFN-γ; details: HaCaT cells, 2.5, 5, 10 and 20 μg/mL for one hour, then TNF-α, IFN-γ, or both, 18 hours; RNA level, FIG. 2
Description: as §1

[4] = tested on: CCL17 expression in HaCaT cells; test: CCL17 protein in media (ELISA) of HaCaT cells induced by TNF-α and/or IFN-γ; details: HaCaT cells, 2.5, 5, 10 and 20 μg/mL for one hour, then TNF-α, IFN-γ, or both, 18 hours, FIG. 3
Description: as §2

Ergostenol
decrease: level of CCL17 gene expression [1] | level of CCL22 protein expression [2] | level of CCL22 gene expression [3] | level of CCL17 protein expression [4]
